“And” between values parts separate entries of the source, which are not always exact repeats. Equal values may be shown once. Inconclusive results are not listed.
System: CD8F1 mice, subcutaneous mammary adenocarcinoma, T/C%
Assay: NCI In Vivo Anticancer Drug Screen. Data for tumor model Mammary Adenocarcinoma CD8F1 (subcutaneous) in CD8F1
Conditions: higher = larger tumour
How it was run: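 Antitumor activity is assessed in transplantable-tumor mice by comparing the treated group with a vehicle-treated control group. Survival or tumor size serves as the measure, reported as T divided by C.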

[1] = endpoint: median tumor weight change, dose: 125.0 mg/kg/injection, schedule: Q01DX001 (ip), vehicle: suspension in saline
[2] = endpoint: median tumor weight change, dose: 250.0 mg/kg/injection, schedule: Q01DX001 (ip), vehicle: suspension in saline
[3] = endpoint: median tumor weight change, dose: 500.0 mg/kg/injection, schedule: Q01DX001 (ip), vehicle: suspension in saline

Nc1nc2ccc(NCc3ccc(C(=O)NC(CCC(=O)O)C(=O)O)cc3)cc2c(=O)[nH]1 (stereo not drawn)
T/C (endpoint: median tumor weight change, dose: 25.0 mg/kg/injection, schedule: Q01DX001 (ip), vehicle: saline with Tween-80): 115 % of control
T/C (endpoint: median tumor weight change, dose: 100.0 mg/kg/injection, schedule: Q01DX001 (ip), vehicle: saline with Tween-80): 68 % of control

Cn1c2nc(=O)n(-c3ccccc3)c(=O)c-2nc2c1CCCC2
T/C (endpoint: median tumor weight (est.), dose: 12.5 mg/kg/injection, schedule: Q07DX005 (ip), vehicle: saline with Tween-80): 90 % of control
T/C (endpoint: median tumor weight (est.), dose: 25.0 mg/kg/injection, schedule: Q07DX005 (ip), vehicle: saline with Tween-80): 108 % of control
T/C (endpoint: median tumor weight (est.), dose: 50.0 mg/kg/injection, schedule: Q07DX005 (ip), vehicle: saline with Tween-80): 119 % of control
T/C (endpoint: median tumor weight (est.), dose: 100.0 mg/kg/injection, schedule: Q07DX005 (ip), vehicle: saline with Tween-80): 100 % of control

O=[N+]([O-])c1ccc(Cl)c([N+](=O)[O-])c1
T/C (endpoint: median tumor weight (est.), dose: 15.0 mg/kg/injection, schedule: Q07DX005 (ip), vehicle: saline with Tween-80): 78 % of control
T/C (endpoint: median tumor weight (est.), dose: 120.0 mg/kg/injection, schedule: Q07DX005 (ip), vehicle: saline with Tween-80): 61 % of control and 83 % of control
T/C (endpoint: median tumor weight (est.), dose: 240.0 mg/kg/injection, schedule: Q07DX005 (ip), vehicle: saline with Tween-80): 65 % of control

CCOC(=O)C1=C(C#N)C2(CCC(OCc3ccccc3)CC2)C(=O)O1 (stereo not drawn)
T/C [1]: 66 % of control
T/C [2]: 63 % of control
T/C [3]: 50 % of control
T/C (endpoint: median tumor weight change, dose: 1000.0 mg/kg/injection, schedule: Q01DX001 (ip), vehicle: suspension in saline): 24 % of control

CN1N=C(N)c2cn(C3OC(COP(=O)(O)O)C(O)C3O)c3ncnc1c23 (stereo not drawn)
T/C (endpoint: median tumor weight (est.), dose: 9.37 mg/kg/injection, schedule: Q07DX005 (ip), vehicle: other): 46 % of control
T/C (endpoint: median tumor weight (est.), dose: 12.5 mg/kg/injection, schedule: Q07DX005 (ip), vehicle: water): 121 % of control
T/C (endpoint: median tumor weight (est.), dose: 18.75 mg/kg/injection, schedule: Q07DX005 (ip), vehicle: other): 52 % of control
T/C (endpoint: median tumor weight (est.), dose: 25.0 mg/kg/injection, schedule: Q07DX005 (ip), vehicle: water): 54 % of control
T/C (endpoint: median tumor weight (est.), dose: 37.5 mg/kg/injection, schedule: Q07DX005 (ip), vehicle: other): 25 % of control
T/C (endpoint: median tumor weight (est.), dose: 50.0 mg/kg/injection, schedule: Q07DX005 (ip), vehicle: water): 25 % of control
T/C (endpoint: median tumor weight (est.), dose: 75.0 mg/kg/injection, schedule: Q07DX005 (ip), vehicle: other): 16 % of control
T/C (endpoint: median tumor weight (est.), dose: 100.0 mg/kg/injection, schedule: Q07DX005 (ip), vehicle: water): 7 % of control
T/C (endpoint: median tumor weight (est.), dose: 150.0 mg/kg/injection, schedule: Q07DX005 (ip), vehicle: other): 5 % of control

CS(=O)(=O)Nc1ccc(C(=O)CCN2CCCCCC2)cc1
T/C [1]: 157 % of control
T/C [2]: 166 % of control
T/C [3]: 92 % of control

COC1C(O)CC(OC2CC(OC3CC(O[C@@H]4C(=O)c5c(cc6cc(OC7CC(OC8CC(O)C(O)C(C)O8)C(O)C(C)O7)c(C)c(O)c6c5O)C[C@H]4[C@H](OC)C(=O)[C@@H](O)[C@@H](C)O)OC(C)C3O)OC(C)C2O)OC1C (stereo partly drawn)
T/C (endpoint: median tumor weight (est.), dose: 0.18 mg/kg/injection, schedule: Q07DX005 (ip), vehicle: saline): 88 % of control
T/C (endpoint: median tumor weight (est.), dose: 0.75 mg/kg/injection, schedule: Q07DX005 (ip), vehicle: saline): 24 % of control and 42 % of control

COC(=O)C(N)Cc1ccc(O)c(O)c1 (stereo not drawn)
T/C (endpoint: median tumor weight (est.), dose: 100.0 mg/kg/injection, schedule: Q07DX005 (ip), vehicle: saline): 195 % of control
T/C (endpoint: median tumor weight (est.), dose: 400.0 mg/kg/injection, schedule: Q07DX005 (ip), vehicle: saline): 112 % of control
T/C (endpoint: median tumor weight (est.), dose: 800.0 mg/kg/injection, schedule: Q07DX005 (ip), vehicle: saline): 108 % of control

Nc1ncnc2c1ncn2C1OC(CO)CC1O (stereo not drawn)
T/C (endpoint: median tumor weight (est.), dose: 37.5 mg/kg/injection, schedule: Q07DX005 (ip), vehicle: Klucel (hydroxypropylcellulose) (HPC)): 102 % of control
T/C (endpoint: median tumor weight (est.), dose: 75.0 mg/kg/injection, schedule: Q07DX005 (ip), vehicle: Klucel (hydroxypropylcellulose) (HPC)): 88 % of control

C=C1C(C)C2C(Cc3ccccc3)NC(=O)C23C(OC(C)=O)/C=C/C(C)(O)CC(C)C/C=C/C3C1O (stereo not drawn)
T/C (endpoint: median tumor weight change, dose: 7.5 mg/kg/injection, schedule: Q01DX001 (ip), vehicle: Klucel (hydroxypropylcellulose) (HPC)): 61 % of control and 66 % of control
